Test results as given in patent US8557958B1, “Compositions and methods for treatment of diabetes” (Tarix Pharmaceuticals Ltd., priority 2012, dated 2013).
“Also recorded” adds a separate entry of the source. Bridge positions count the residues as written; N and C are the ends. Ends that are not written are not given here.

How the values were obtained:
[1] = tested on: streptozotocin (STZ) induced diabetic mouse model; assay: Plasma insulin levels by mouse insulin ELISA in STZ induced diabetic mouse model (Example 1); type: in vivo, mouse (C57Bl/6); conditions: for Plasma insulin levels as compared to vehicle treated control: days 14 and 28; for Insulin (Mean): plasma
Experimental: (§1) Following acclimatization, mice were dosed intraperitoneally (IP) with 50 mg/kg STZ solubilized in 0.05 M sodium citrate at a volume of 100 μl per mouse for five consecutive days. Blood Glucose levels were monitored beginning day 4 post STZ using a glucose meter (Accu-Chek Advantage from Roche). On day six (after five days of STZ injection) mice were grouped into four groups having average blood glucose levels of 200 mg/dL. Two groups were dosed with PanCyte (SEQ ID NO:22) 50 and 500 μg/kg body weight respectively, one group was dosed with TXA-127 (SEQ ID NO:1) 500 ug/kg, and one group was dosed with PBS as vehicle control.
Plasma insulin levels were measured on days 14 and 28 after treatment. Blood samples (approximately 50 to 100 ul) were collected and processed for plasma by centrifugation. Plasma samples were then used for the measurement of insulin levels using a mouse sensitive insulin ELISA kit (ALPCO Diagnostic), according the to manufacturer's instructions.

[2] = tested on: adipocytes; conditions: administered directly to adipocytes in vitro; Liu, C. et al. 2011; cited from earlier work
[3] = tested on: streptozotocin (STZ) induced diabetic mouse model; assay: Blood glucose in STZ induced diabetic mouse model (Example 1); type: in vivo, mouse (C57Bl/6); conditions: 50 and 500 μg/kg body weight; monitored 3×/week for 4 weeks post STZ; FIG. 1
Text: Streptozotocin is a widely used chemical agent for producing Type-I Diabetes in experimental animals. The chemical is thought to cause Diabetes by direct action on the pancreatic beta cells and inhibits the insulin secretory mechanism. Depending upon the dosing regimen, streptozotocin can cause a mild, moderate, or severe diabetic condition.
C57Bl/6 female, 7-8 weeks old were used for the study. Upon arrival, mice were 6 weeks of age. All the mice were obtained from The Jackson Laboratory, Bar Harbor, Me. 04609, USA.
as §1
Blood glucose was be monitored 3×/week for 4 weeks post STZ. Blood glucose levels was be monitored using a glucose meter by placing a drop of blood directly on to the meter strip, and measuring according to manufacturer's instructions.

[4] = tested on: streptozotocin (STZ) induced diabetic mouse model; assay: Blood glucose in STZ induced diabetic mouse model (Example 2); type: in vivo, mouse (C57Bl/6); conditions: for Blood Glucose (Mean): 50 μg/kg SC once daily; for Blood glucose levels as compared to vehicle treated group: 50 μg/kg body weight SC for twenty eight days
Experimental: C57Bl/6 female mice, 6-7 weeks old were used for the study and conditions were the same as for Example 1 above unless otherwise specified. Following acclimatization, mice were dosed intraperitoneally (IP) with 50 mg/kg STZ solubilized in 0.05 M sodium citrate buffer at a volume of 100 μl per mouse for five consecutive days. Blood Glucose levels were monitored on day 6 post STZ using Accu check glucose meter. Mice were grouped having average blood glucose levels of 200 mg/dL. There were three groups of ten mice each. Mice were dosed subcutaneously with Linear PanCyte (SEQ ID NO:6), PanCyte or vehicle for twenty-eight days. […]
Linear PanCyte and PanCyte were prepared in saline and administrated subcutaneously at a dose volume of 100 μl/mouse daily for twenty-eight days. Dosing solutions were prepared fresh every three days.
The blood glucose level was lowest in the groups treated with PanCyte 50 μg/kg followed by Linear-PanCyte 50 μg/kg.

[5] = tested on: diabetic mouse model; conditions: Bindom et al. 2010; cited from earlier work
[6] = dose 500 μg (500 μg/kg body weight), day 14 after treatment
[7] = dose 500 μg (500 μg/kg body weight), day 28 after treatment

Asp^1-Arg^2-Val^3-Tyr^4-Ile^5-His^6-Pro^7 [TXA-127]
Plasma insulin levels as compared to vehicle treated control ([1]; 500 ug/kg weight): significantly higher levels of insulin
Insulin (Mean) [1, 6]: 1.097 ng/mL
Insulin (Mean) [1, 7]: 0.954 ng/mL
Glucose uptake [2]: increased glucose uptake

Asp^1-Arg^2-Val^3-Ser^4-Ile^5-His^6-Cys^7 [PanCyte] (DRVSIHC; bridge 4-7)
Blood glucose levels [3]: decreased blood glucose levels
Plasma insulin levels as compared to vehicle treated control ([1]; 50 ug/kg weight): significantly higher levels of insulin
Plasma insulin levels as compared to vehicle treated control ([1]; 500 ug/kg weight): significantly higher levels of insulin
Insulin (Mean) ([1]; dose 50 μg (50 μg/kg body weight), day 14 after treatment): 1.217 ng/mL
Insulin (Mean) ([1]; dose 50 μg (50 μg/kg body weight), day 28 after treatment): 1.244 ng/mL
Insulin (Mean) [1, 6]: 1.016 ng/mL
Insulin (Mean) [1, 7]: 0.902 ng/mL
Blood Glucose (Mean) ([4]; day 1): 223 mg/dL
Blood Glucose (Mean) ([4]; day 3): 205.3 mg/dL
Blood Glucose (Mean) ([4]; day 5): 197.8 mg/dL
Blood Glucose (Mean) ([4]; day 8): 213.2 mg/dL
Blood Glucose (Mean) ([4]; day 10): 230.7 mg/dL
Blood Glucose (Mean) ([4]; day 12): 234.8 mg/dL
Blood Glucose (Mean) ([4]; day 15): 232.5 mg/dL
Blood Glucose (Mean) ([4]; day 17): 240.3 mg/dL
Blood Glucose (Mean) ([4]; day 19): 230 mg/dL
Blood Glucose (Mean) ([4]; day 22): 237.1 mg/dL
Blood Glucose (Mean) ([4]; day 24): 237.3 mg/dL
Blood Glucose (Mean) ([4]; day 26): 232.6 mg/dL
Blood glucose levels as compared to vehicle treated group [4]: Significant differences; also recorded: lowered blood glucose levels significantly

Asp^1-Arg^2-Val^3-Ser^4-Ile^5-His^6-Cys^7 [Linear-PanCyte] (DRVSIHC; linear)
Blood Glucose (Mean) ([4]; day 1): 222.8 mg/dL
Blood Glucose (Mean) ([4]; day 3): 202.2 mg/dL
Blood Glucose (Mean) ([4]; day 5): 220.7 mg/dL
Blood Glucose (Mean) ([4]; day 8): 248.5 mg/dL
Blood Glucose (Mean) ([4]; day 10): 252.1 mg/dL
Blood Glucose (Mean) ([4]; day 12): 276.1 mg/dL
Blood Glucose (Mean) ([4]; day 15): 278.6 mg/dL
Blood Glucose (Mean) ([4]; day 17): 269.3 mg/dL
Blood Glucose (Mean) ([4]; day 19): 280.7 mg/dL
Blood Glucose (Mean) ([4]; day 22): 266.2 mg/dL
Blood Glucose (Mean) ([4]; day 24): 256.3 mg/dL
Blood Glucose (Mean) ([4]; day 26): 253 mg/dL
Blood glucose levels as compared to vehicle treated group [4]: Significant differences; also recorded: lowered blood glucose levels significantly

D-Ala^7-Ang-(1-7)
Effect on the decrease in blood glucose and increase in insulin levels seen with ACE2 expression [5]: blocked the decrease in blood glucose
